Source: US20220233652A1, “Pharmaceutical Compositions Comprising Integration-Promoting Peptides” (priority 2018, published 2022)

Experiments:
[1] = INS HCl solubility and stability in isotonic buffers of different pH (5 mg/ml in buffer, diluted to 1 mg/ml, LC-MS); type: physicochemical
Method: Analytical HPLC-MS was performed using an Agilent 1260 series Liquid Chromatograph/Mass Selective Detector (MSD, Single Quadrupole) equipped with an electrospray interface and a UV diode array detector. Analyses were performed on an ACE C8, 50×3.0 mm, 3 μm column, with an isocratic 0.1% formic acid/ACN (19%) eluent, at a rate of 1 ml/min over a period of 5 minutes. UV absorption was measured at 220 nm and 215-395 nm. MS analysis was performed with ESI (electron spray ionization) with a positive ionization method. PBS isotonic buffer was prepared from 1 tablet of Sigma Phosphate buffer saline P4417, in 200 ml of deionized water (according to product reconstitution instructions). Acetate isotonic buffers were prepared from sodium acetate/acetic acid in water in 150 mM concentration. NaOH 50% solution was used to adjust the pH. NaOAc solution was prepared by dissolving 1.23 gr in 100 ml water. Acetic acid solution was prepared by adding 945 μl of acetic acid to 100 ml water. […] The samples were further diluted to 1 mg/ml before analyzing by HPLC. The samples were prepared by dilution of 80 μl of reaction solution with 320 μl of MeOH. Each sample was filtered through PTFE 0.45 um filter vial. The samples were run in LC-MS and data used for calculation concentration in buffer. All injections for stability assay were performed using 20 μl due to low peak intensity with 2 μl. Final concentration was calculated accordingly.

CD4 T-cell = assay: Phase I/IIa clinical trial: CD4 T-cell count; type: in vivo, human; settings: patients treated with INS (part II with lopinavir plus ritonavir)
Method: Reduced viral protein p24 antigen. • 3. Functional Assessment of HIV Infection (FAHI) questionnaire.
In addition, the preliminary results indicated treatment efficacy as measured by decrease in viral load in HIV patients. Most patients achieved significant reduction in viral load for up to 90% from baseline during the first 5 weeks of SC administration, meeting its exploratory endpoint. […] In this study, patients were treated for 5 weeks with a combined treatment of the subcutaneous composition as previous (0.2-0.4 mg/kg twice a week) and commercially available lopinavir 800 mg plus ritonavir 200 mg daily. The control group received only lopinavir 800 mg plus ritonavir 200 mg for additional 5 weeks.

[2] = Mortality, body weight and safety in tumor mice models; type: in vivo, athymic nude mice; settings: lung and pancreatic cancer models
Method: • 1. Mortality—every day • 2. Tumor measurements—twice a week • 3. Tumor weight post mortem • 4. Tissue preservation—kept in formalin or were snap freezed and kept at −80° C.
The first day of the study was defined as ‘Day 1’. The animals were administrated IP with either Vehicle (PBS or Formulation), lentiviral particles and SC with test items according to Table 27 on days 1, 4, 8 and 11. Body weight and tumor volume were checked on days 3, 7, 11, 14 and 17 (the latter was measured with a caliper). At the end of the experiment, on day 17, the mice were anesthetized and then sacrificed, and the tumors were removed, as well as lung, spleen, kidney and liver.

[3] = PBS buffer pH 7.4, at 5° C. and at 25° C., 0 hours
[4] = acetate buffer pH 4, 5° C., 0 hours
[5] = acetate buffer pH 4, 5° C., 24 hours
[6] = acetate buffer pH 4, 5° C., 168 hours
[7] = acetate buffer pH 4, 25° C., 0 hours
[8] = acetate buffer pH 4, 25° C., 24 hours
[9] = acetate buffer pH 4, 25° C., 168 hours
[10] = acetate buffer pH 6, 5° C., 0 hours
[11] = acetate buffer pH 6, 5° C., 24 hours
[12] = acetate buffer pH 6, 5° C., 168 hours
[13] = acetate buffer pH 6, 25° C., 0 hours
[14] = acetate buffer pH 6, 25° C., 24 hours
[15] = acetate buffer pH 6, 25° C., 168 hours

Question: With WTAVQMAVFIHNFKRK [INS] as the sequence, how does the Area [1, 3] read?
Answer: 201.90 mAU*S

Question: And the Assay % [1, 3]?
Answer: 2.91%

Question: What about the “Concentration calculated from LC-MS data” value [1, 3] of the same sequence?
Answer: 30 µg/mL

Question: What about the Area ([1]; PBS buffer pH 7.4, at 5° C. and at 25° C., 24 hours) of the same sequence?
Answer: Not observed

Question: And the Area ([1]; PBS buffer pH 7.4, at 5° C. and at 25° C., 168 hours)?
Answer: Not observed

Question: What about the “Solubility in PBS buffer pH 7.4” value ([1]; a white precipitate was observed) of the same sequence?
Answer: no solubility at all

Question: What about the Assay % [1, 4] of the same sequence?
Answer: 66.84%

Question: What about the “Concentration calculated from LC-MS data” value [1, 4] of the same sequence?
Answer: 646 µg/mL

Question: And the Assay % [1, 5]?
Answer: 62.32%

Question: And the “Concentration calculated from LC-MS data” value [1, 5]?
Answer: 602 µg/mL

Question: What about the Assay % [1, 6] of the same sequence?
Answer: 62.00%

Question: What about the “Concentration calculated from LC-MS data” value [1, 6] of the same sequence?
Answer: 599 µg/mL

Question: And the Assay % [1, 7]?
Answer: 66.87%

Question: And the “Concentration calculated from LC-MS data” value [1, 7]?
Answer: 646 µg/mL

Question: What about the Assay % [1, 8] of the same sequence?
Answer: 66.25%

Question: And the “Concentration calculated from LC-MS data” value [1, 8]?
Answer: 640 µg/mL

Question: And the Assay % [1, 9]?
Answer: 36.75%

Question: What about the “Concentration calculated from LC-MS data” value [1, 9] of the same sequence?
Answer: 355 µg/mL

Question: And the Assay % [1, 10]?
Answer: 73.49%

Question: What about the “Concentration calculated from LC-MS data” value [1, 10] of the same sequence?
Answer: 729 µg/mL

Question: And the Assay % [1, 11]?
Answer: 53.43%

Question: And the “Concentration calculated from LC-MS data” value [1, 11]?
Answer: 530 µg/mL

Question: What about the Assay % [1, 12] of the same sequence?
Answer: 44.15%

Question: What about the “Concentration calculated from LC-MS data” value [1, 12] of the same sequence?
Answer: 438 µg/mL

Question: And the Assay % [1, 13]?
Answer: 73.49%

Question: What about the “Concentration calculated from LC-MS data” value [1, 13] of the same sequence?
Answer: 729 µg/mL

Question: And the Assay % [1, 14]?
Answer: 52.42%

Question: What about the “Concentration calculated from LC-MS data” value [1, 14] of the same sequence?
Answer: 520 µg/mL

Question: What about the Assay % [1, 15] of the same sequence?
Answer: 21.98%

Question: And the “Concentration calculated from LC-MS data” value [1, 15]?
Answer: 218 µg/mL

Question: And the “Assay at time zero” value ([1]; acetate buffers pH 4 and pH 6)?
Answer: about 70%

Question: And the “Stability at 5° C. versus 25° C.” value ([1]; acetate buffers pH 4 and pH 6)?
Answer: better stability at 5 °C compared to the samples at 25 °C

Question: What about the “Increase of CD4 T-cell count relative to baseline” value (CD4 T-cell) of the same sequence?
Answer: up to 97%

Question: What about the Mortality ([2]; 17 days) of the same sequence?
Answer: No animal was found dead or in morbid state

Question: And the Body weight ([2]; mice gained weight as expected)?
Answer: no differences between groups
